Test system: PTEN-P2/GFP prostate cancer cells
Experiment: Effect of 1,4-naphthoquinone analogs on PTEN-P2/GFP cell proliferation (WST-1 cell viability, 24 h)
Type: cell-based
Details: Mus musculus, WST-1, medium with 10% FBS and DHT, read-out: PTEN-P2/GFP cell proliferation, percent of control
Protocol: Cells are grown in phenol red-free DMEM medium containing 10% FBS, 2 mM L-glutamine, 100 U/ml penicillin/100 μg/ml streptomycin, insulin-selenium-transferrin (5 μg/ml insulin), and DHT 10^−8M final. Androgen withdrawal is achieved by not adding DHT to the medium. Cells are maintained in a humidified incubator at 37° C. and 5% CO2. G418 (100 μg/ml) is added to maintain stable expression of H2B-GFP.
100 microliters of PTEN-P2/GFP prostate cancer cells were plated at a density of 8000 cells/well in 96-well plates (triplicates) in growing medium containing 10% Fetal Bovine Serum and DHT. The next day, increasing concentrations of a 1,4-naphthoquinone analog (diluted from 10 mM DMSO stock solutions) were added. DMSO used as solvent for all analogs, was kept constant through the 96-well plates. The control consisted of DMSO alone. The cells were subsequently incubated for 24 hours at 37° C. and 5% CO2 in normal cell growth conditions. Cell viability was assessed by adding 9 μL/well of WST-1 reagent (Clontech), which measured mitochondrial activity of live cells. […] The incubation time was 3 hours at 37° C. Optical density of the cell samples was measured at 460 nm, by using plate reader Spectra Max 250 (Molecular Devices). The drug was determined to be cytotoxic when OD values show an inverse correlation with analog concentrations. The results are shown in TABLES 3.1-3.4, FIGS. 2A-2E, and FIGS. 3A-3D.

| Compound | activity at 2 µM [%] | activity at 3 µM [%] | activity at 4 µM [%] | activity at 5 µM [%] | activity at 6 µM [%] | activity at 7 µM [%] | activity at 10 µM [%] | activity at 15 µM [%] | activity at 25 µM [%] | activity at 1.2 µM [%] | activity at 2.5 µM [%] | activity at 7.5 µM [%] | activity at 20 µM [%] |
| --- | --- | --- | --- | --- | --- | --- | --- | --- | --- | --- | --- | --- | --- |
| Cc1cccc(OC2=CC(=O)c3ccccc3C2=O)c1 [Analog F08, 2-(3-methylphenoxy)-1,4-naphthoquinone] | 102 | 101 | 99.4 | 92.2 | 83.9 | 68.8 | 30.8 | 12.8 | 9.66 |  |  |  |  |
| O=C1C=C(Oc2ccc3ccccc3c2)C(=O)c2ccccc21 [Analog F09, 2-(naphthalene-2-yloxy)-1,4-naphthoquinone] |  |  |  | 106 |  |  | 28.7 | 1.97 |  | 117 | 114 | 70 | 3.09 |
| O=C1C=C(Oc2ccc(O)cc2)C(=O)c2ccccc21 [Analog F10, 2-(4-hydroxyphenoxy)-1,4-naphthoquinone] | 98.6 | 95.4 | 91.2 | 82.8 | 67.1 | 53.6 | 25.2 | 16.7 | 17.6 |  |  |  |  |
| CN(C)CCc1ccc(OC2=CC(=O)c3ccccc3C2=O)cc1 [Analog F11, 2-(4-(2-dimethylaminoethyl)phenoxy)-1,4-naphthoquinone] | 99.6 | 93.4 | 79.2 | 61.3 | 46 | 36.4 | 22.8 | 12.3 | 9.33 |  |  |  |  |
| O=C1C=C(Oc2ccc([N+](=O)[O-])cc2)C(=O)c2ccccc21 [Analog F12, 2-(4-nitrophenoxy)naphthalene-1,4-dione] |  |  |  | 118 |  |  | 115 | 78.8 |  | 122 | 118 | 117 | 8.27 |
| O=C1C=C(Oc2ccc(Cl)cc2Cc2ccccc2)C(=O)c2ccccc21 [Analog F13, 2-(2-benzyl-4-chlorophenoxy)naphthalene-1,4-dione] |  |  |  | 60.5 |  |  | 1.69 | 2.19 |  | 129 | 119 | 17.5 | 2.53 |
| O=C1C=C(Oc2ccc(Cl)cc2)C(=O)c2ccccc21 [Analog F14, 2-(4-chlorophenoxy)naphthalene-1,4-dione] |  |  |  | 86.2 |  |  | 19.2 | 1.27 |  | 100 | 92.3 | 71 | 2.3 |
| Cc1cc(OC2=CC(=O)c3ccccc3C2=O)ccc1Cl [Analog F15, 2-(4-chloro-3-methylphenoxy)naphthalene-1,4-dione] |  |  |  | 97.1 |  |  | 4.3 | 1.67 |  | 95.6 | 89 | 55.5 | 2.4 |
| COc1ccc(OC2=CC(=O)c3ccccc3C2=O)c(Cl)c1 [Analog F16, 2-(2-chloro-4-methoxyphenoxy)naphthalene-1,4-dione] |  |  |  | 82.5 |  |  | 0.73 | 1.43 |  | 92.8 | 97 | 12 | 2.3 |
| O=C1C=C(Oc2cc(F)cc(F)c2)C(=O)c2ccccc21 [Analog F17, 2-(3,5-difluorophenoxy)naphthalene-1,4-dione] |  |  |  | 88.7 |  |  | 71.5 | 1.07 |  | 97 | 91.8 | 78.2 | 2.53 |
| O=C1C(Br)=C(Oc2ccccc2)C(=O)c2ccccc21 [Analog F18, 2-bromo-3-phenoxy-1,4-naphthoquinone] | 96.6 | 92.5 | 85.5 | 69.8 | 53.5 | 45 | 20.3 | 11.1 | 9.64 |  |  |  |  |
| COC(=O)c1ccccc1OC1=C(Br)C(=O)c2ccccc2C1=O [Analog F19, methyl 3-bromo-1,4-naphthoquinon-2-yl-salicylate] | 99.5 | 94.3 | 85.2 | 81 | 68.2 | 59.3 | 32.3 | 20.1 | 12.1 |  |  |  |  |
| O=C1C(Oc2ccccc2)=C(Oc2ccccc2)C(=O)c2ccccc21 [Analog F21, 2,3-diphenoxy-1,4-naphthoquinone] | 102 | 92.9 | 92.9 | 92.9 | 61.8 | 54.4 | 26.1 | 16.2 | 16.3 |  |  |  |  |
| O=C1C(Oc2c(F)cc(F)cc2F)=C(Oc2c(F)cc(F)cc2F)C(=O)c2ccccc21 [Analog F22, 2,3-bis(2,4,6-trifluorophenoxy)naphthalene-1,4-dione] |  |  |  | 105 |  |  | 104 | 105 |  | 91.2 | 103 | 107 | 101 |
| O=C1C(Oc2ccc(O)cc2)=C(Oc2ccc(O)cc2)C(=O)c2ccccc21 [Analog F24, 2,3-bis(4-hydroxyphenoxy)-1,4-naphthoquinone] |  |  |  | 57.6 |  |  | 8.07 | 6.73 |  | 111 | 87.1 | 30.9 | 3.73 |
| O=C(NCCCl)Oc1ccc(OC2=C(Oc3ccc(OC(=O)NCCCl)cc3)C(=O)c3ccccc3C2=O)cc1 [Analog F34, 2,3-bis(4-((2-chloroethyl)carbamoyloxy)phenoxy)-1,4-naphthoquinone] | 74.5 | 49.6 | 35.8 | 26 | 19.3 | 17.2 | 14.2 | 14.2 | 14.5 |  |  |  |  |
| CC(=O)NC1=C(Cl)C(=O)c2ccccc2C1=O [Analog F37, 2-N-acetylamino-3-chloro-1,4-naphthoquinone] | 101 | 94.4 | 86.6 | 71.4 | 55.7 | 36.7 | 17.6 | 13.9 | 13.6 |  |  |  |  |
| CC(=O)NC1=C(Oc2ccccc2)C(=O)c2ccccc2C1=O [Analog F38, N-(1,4-dioxo-3-phenoxy-1,4-dihydronaphthalen-2-yl)acetamide] | 95.8 | 87 | 71.7 | 54 | 41 | 30.7 | 16.6 | 14.7 | 14.3 |  |  |  |  |
| CC(=O)NC1=C(Oc2ccc(Cl)cc2)C(=O)c2ccccc2C1=O [Analog F39, N-(3-(4-chlorophenoxy)-1,4-dioxo-1,4-dihydronaphthalen-2-yl)acetamide] | 102 | 82.2 | 70.6 | 57.5 | 41.5 | 29.4 | 14.3 | 12 | 12.7 |  |  |  |  |

From patent US10577315B2, “Compositions and methods for treatment of prostate carcinoma” (Pellficure Pharmaceuticals, Inc., priority 2014, dated 2020)
